This passage reports Emax and EC50 results from patent publication US10239887B2, “Positive allosteric modulators of the muscarinic acetylcholine receptor M4” (Vanderbilt University, priority 2016, dated 2019).

Counter-ions that a name gives are not always drawn. Like-named read-outs stand apart in the source and are kept apart here.

As usually defined, the Emax is the size of the effect at its maximum, as opposed to the concentration needed. By EC50 is commonly meant the concentration needed to bring the measured effect to its halfway point.

The test has as its target T1, human mAChR M4 (Homo sapiens, UniProt P08173).
T1 sequence (P08173 1-479): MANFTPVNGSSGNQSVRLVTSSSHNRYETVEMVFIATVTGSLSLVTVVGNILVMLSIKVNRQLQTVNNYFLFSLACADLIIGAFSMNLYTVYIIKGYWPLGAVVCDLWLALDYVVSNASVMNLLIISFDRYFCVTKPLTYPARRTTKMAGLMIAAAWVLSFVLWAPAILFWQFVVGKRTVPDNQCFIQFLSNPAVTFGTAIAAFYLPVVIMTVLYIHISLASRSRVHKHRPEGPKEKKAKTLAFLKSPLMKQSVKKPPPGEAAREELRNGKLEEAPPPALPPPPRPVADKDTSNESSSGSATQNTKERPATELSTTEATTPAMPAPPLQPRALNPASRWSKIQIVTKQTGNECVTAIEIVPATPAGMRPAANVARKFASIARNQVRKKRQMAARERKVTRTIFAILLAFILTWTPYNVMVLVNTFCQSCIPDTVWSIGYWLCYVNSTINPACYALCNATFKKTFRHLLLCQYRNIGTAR
The test is described as follows: mAChR M4 cell-based functional assay (calcium flux), human M4. The note with it: for EC50: Human M4 EC50, CHO-K1 hM4-Gqi5 cells, calcium flux, increase in EC20 acetylcholine response. A general note: A change in cytosolic calcium serves as a functional read-out for many receptors and channels.

Setting [1] is: Human M4, % ACh maximum at 30 μM.

On to `Cc1cnc2sc3c(N4CCCC4)ncnc3c2c1` [Compound 15, 8-methyl-4-(pyrrolidin-1-yl) pyrido[3′,2′:4,5]thieno [3,2-d]pyrimidine], for which the Emax under setting [1] was found to be 40%.

In the case of `Cc1cnc2sc3c(N4CCC(F)(F)C4)ncnc3c2c1` [Compound 16, 4-(3,3-difluoropyrrolidin-1-yl)-8-methylpyrido [3′,2′:4,5]thieno[3,2-d] pyrimidine], the EC50 amounted to 377 nM. Moreover, the Emax under setting [1] turned out to be 360%.

Turning to `Cc1nnc2sc3c(N4CC(F)(F)C4)ncnc3c2c1C` [Compound 21, 8-(3,3-difluoroazetidin-1-yl)-3,4-dimethylpyrimido [4′,5′:4,5]thieno[2,3-c] pyridazine], the EC50 stood at 426 nM. The Emax under setting [1] came out at 64%. On the same counts, the results for `Cc1nnc2sc3c(NC4CN(c5ccc(C(F)(F)F)nc5)C4)ncnc3c2c1C` [Compound 22, 3,4-dimethyl-N-(1-(6-(trifluoromethyl)pyridin-3-yl)azetidin-3-yl) pyrimido[4′,5′:4,5]thieno [2,3-c]pyridazin-8-amine] are no less than 10000 nM and 36%. On the same counts, the results for `Cc1nnc2sc3c(NC4CCN(c5ccccc5)C4)ncnc3c2c1C` (stereo not drawn) [Compound 23, 3,4-dimethyl-N-(1-phenylpyrrolidin-3-yl) pyrimido[4′,5′:4,5]thieno [2,3-c]pyridazin-8-amine] are no less than 10000 nM and 27%. The corresponding values for `Cc1nnc2sc3c(NC4CC4)ncnc3c2c1C` [Compound 25, N-cyclopropyl-3,4-dimethylpyrimido [4′,5′:4,5]thieno[2,3-c] pyridazin-8-amine] are 468 nM and 79%.

Consider `COc1ccc(C2CC2Nc2ncnc3c2sc2nnc(C)c(C)c23)cc1` (stereo not drawn) [Compound 26, N-(2-(4-methoxyphenyl)cyclopropyl)-3,4-dimethylpyrimido [4′,5′:4,5]thieno[2,3-c] pyridazin-8-amine], for which the EC50 is no less than 10000 nM. Under setting [1], the maximal effect (Emax) turned out to be 44%. Regarding `COc1ccc(CNc2ncnc3c2sc2nnc(C)c(C)c23)cc1F` [Compound 27, N-(3-fluoro-4-methoxybenzyl)-3,4-dimethylpyrimido [4′,5′:4,5]thieno[2,3-c] pyridazin-8-amine], the Emax under setting [1] was 62%.

In the case of `Cc1nnc2sc3c(N4CCC(c5ccccc5)C4)ncnc3c2c1C` (stereo not drawn) [Compound 28, 3,4-dimethyl-8-(3-phenylpyrrolidin-1-yl) pyrimido[4′,5′:4,5]thieno [2,3-c]pyridazine], under setting [1], the Emax was determined as 49%. In the case of `Cc1nnc2sc3c(NCc4ccc(-c5cccnc5F)cc4)ncnc3c2c1C` [Compound 29, N-(4-(2-fluoropyridin-3-yl)benzyl)-3,4-dimethylpyrimido [4′,5′:4,5]thieno[2,3-c] pyridazin-8-amine], the EC50 turned out to be 4050 nM. Under setting [1], the Emax amounted to 61%. On the same counts, the results for `Cc1nnc2sc3c(N4CC(Oc5ccc(F)cc5)C4)ncnc3c2c1C` [Compound 30, 8-(3-(4-fluorophenoxy)azetidin-1-yl)-3,4-dimethylpyrimido [4′,5′:4,5]thieno[2,3-c] pyridazine] are 2610 nM and 65%.

As for `Cc1nnc2sc3c(N4CC(Oc5ccccc5F)C4)ncnc3c2c1C` [Compound 31, 8-(3-(2-fluorophenoxy)azetidin-1-yl)-3,4-dimethylpyrimido [4′,5′:4,5]thieno[2,3-c] pyridazine], the EC50 came to 2160 nM. The Emax under setting [1] is 60%. The corresponding values for `Cc1nnc2sc3c(N4CC(Oc5cccc(F)c5)C4)ncnc3c2c1C` [Compound 32, 8-(3-(3-fluorophenoxy)azetidin-1-yl)-3,4-dimethylpyrimido [4′,5′:4,5]thieno[2,3-c] pyridazine] are 1760 nM and 62%. The corresponding values for `Cc1nnc2sc3c(N4CC(Oc5ccccc5)C4)ncnc3c2c1C` [Compound 33, 3,4-dimethyl-8-(3-phenoxyazetidin-1-yl) pyrimido[4′,5′:4,5]thieno [2,3-c]pyridazine] are 4430 nM and 54%.

Take `Cc1nnc2sc3c(N4CC(C)(O)C4)ncnc3c2c1C` [Compound 34, 1-(3,4-dimethylpyrimido [4′,5′:4,5]thieno[2,3-c]pyridazin-8-yl)-3-methylazetidin-3-ol]: the half-maximal effective concentration (EC50) was determined as 660 nM. For the same compound, the Emax under setting [1] is 59%. On the same counts, the results for `CC(=O)N1CC(Nc2ncnc3c2sc2nnc(C)c(C)c23)C1` [Compound 35, 1-(3-((3,4-dimethylpyrimido [4′,5′:4,5]thieno[2,3-c]pyridazin-8-yl)amino)azetidin-1-yl)ethan-1-one] are 53 nM and 79%. On the same counts, the results for `Cc1nnc2sc3c(N4CC(=O)C4)ncnc3c2c1C` [Compound 36, 1-(3,4-dimethylpyrimido [4′,5′:4,5]thieno[2,3-c]pyridazin-8-yl) azetidin-3-one] are 1000 nM and 64%. On the same counts, the results for `Cc1nc2oc3c(NCc4ccc(C(C)(C)O)cc4)ncnc3c2c(C)c1Cl` [Compound 39, 2-[4-[[(8-chloro-7,9-dimethyl-pyrido[3′,2′:4,5]furo[3,2-d]pyrimidin-4-yl)amino]methyl]phenyl] propan-2-ol] are 110 nM and 61.8%.

For the compound `CNc1ncnc2c1oc1nc(C)c(Cl)c(C)c12` [Compound 44, 8-chloro-N,7,9-trimethyl-pyrido[3′,2′:4,5]furo[3,2-d]pyrimidin-4-amine hydrochloride], the EC50 is 1690 nM. The Emax under setting [1] is 39.8%. Take `CCNc1ncnc2c1oc1nc(C)c(Cl)c(C)c12` [Compound 47, 8-chloro-N-ethyl-7,9-dimethyl-pyrido[3′,2′:4,5]furo[3,2-d]pyrimidin-4-amine hydrochloride]: the EC50 was determined as 1250 nM. Moreover, under setting [1], the Emax stood at 40.6%. The corresponding values for `Cc1nc2oc3c(NC4CC4c4ccc(F)c(F)c4)ncnc3c2c(C)c1Cl` (stereo not drawn) [Compound 51, 8-chloro-N-[2-(3,4-difluorophenyl)cyclopropyl]-7,9-dimethyl-pyrido [3′,2′:4,5]furo[3,2-d]pyrimidin-4-amine hydrochloride] are 7840 nM and 70%. As for `Cc1cc(C)c2c(n1)oc1c(NC3CCC3)ncnc12` [Compound 55, N-Cyclobutyl-7,9-dimethyl-pyrido[3′,2′:4,5]furo[3,2-d]pyrimidin-4-amine hydrochloride], the Emax worked out at 44.2% and the EC50 stood at 1590 nM. `Cc1cc(C)c2c(n1)oc1c(N3CC4(COC4)C3)ncnc12` [Compound 56, 7,9-dimethyl-4-(2-oxa-6-azaspiro[3.3]heptan-6-yl)pyrido[3′,2′:4,5]furo[3,2-d]pyrimidine]: the EC50 came to 3370 nM. Also, the Emax under setting [1] was 37.7%. The corresponding values for `Cc1cc(C)c2c(n1)oc1c(NCc3cccc(C(C)(C)O)c3)ncnc12` [Compound 57, 2-[3-[[(7,9-dimethylpyrido[3′,2′:4,5]furod[3,2-]pyrimidin-4-yl)amino]methyl]phenyl] propan-2-ol] are 4270 nM and 23.7%. On to `Cc1cc(C)c2c(n1)oc1c(NC3CN(c4ncc(F)cn4)C3)ncnc12` [Compound 59, N-[1-(5-fluoropyrimidin-2-yl)azetidin-3-yl]-7,9-dimethyl-pyrido[3′,2′:4,5]furo[3,2-d]pyrimidin-4-amine hydrochloride], for which the Emax under setting [1] stood at 34.9%. In the case of `Cc1cc(C)c2c(n1)oc1c(NC3CN(c4cc(Cl)ncc4Cl)C3)ncnc12` [Compound 60, N-[1-(2,5-dichloro-4-pyridyl)azetidin-3-yl]-7,9-dimethyl-pyrido[3′,2′:4,5]furo[3,2-d]pyrimidin-4-amine dihydrochloride], the Emax came out at 49.3% and the EC50 worked out at 1490 nM. Consider `Cc1cc(C)c2c(n1)oc1c(NC3CC3c3ccc(F)c(F)c3)ncnc12` (stereo not drawn) [Compound 61, hydrochloride], for which the EC50 was 3380 nM. For the same compound, the Emax under setting [1] was found to be 56.3%. For `Cc1cc(C)c2c(n1)oc1c(NC3CC3)ncnc12` [Compound 62, N-cyclopropyl-7,9-dimethyl-pyrido[3′,2′:4,5]furo[3,2-d]pyrimidin-4-amine hydrochloride], the Emax turned out to be 63.9%.

`Cc1nnc2oc3c(NC4CN(c5ncc(F)cn5)C4)ncnc3c2c1C` [Compound 63, N-[1-(5-Fluoropyrimidin-2-yl)azetidin-3-yl]-3,4-dimethyl-pyrimido[4′,5′:4,5]furo[2,3-c]pyridazin-8-amine]: under setting [1], the Emax was determined as 36.8%. As to `Cc1nnc2oc3c(NCc4ccc(C5(O)CCC5)cc4)ncnc3c2c1C` [Compound 64, 1-[4-[[(3,4-dimethylpyrimido [4′,5′:4,5]furo[2,3-c]pyridazin-8-yl)amino]methyl]phenyl] cyclobutanol], the EC50 was found to be 862 nM. Also, the Emax under setting [1] was 58.2%. On the same counts, the results for `Cc1nnc2oc3c(NCc4ccc(C(C)(C)O)cc4)ncnc3c2c1C` [Compound 65, 2-[4-[[(3,4-dimethylpyrimido[4′,5′:4,5]furo[2,3-c]pyridazin-8-yl)amino]methyl]phenyl]propan-2-ol] are 2290 nM and 61.2%. Consider `Cc1nnc2oc3c(NCc4cccc(C5(O)CCC5)c4)ncnc3c2c1C` [Compound 66, 1-[3-[[(3,4-dimethylpyrimido [4′,5′:4,5]furo[2,3-c]pyridazin-8-yl)amino]methyl]phenyl]cyclobutanol], for which the Emax under setting [1] was 61.1%.
